Biological target: T1, human TRPV4 (Homo sapiens, UniProt Q9HBA0)
T1 construct: expressed in transfected cells; host or cells: HeLa cells, transient transfection with a pcDNA 3.1 Directional TOPO vector
Experiment: Evaluation of TRPV4 activity-inhibiting action: intracellular calcium ion influx rate in human TRPV4-expressing HeLa cells stimulated with GSK1016790a (Fluo 4)
Type: cell-based
Conditions: for calcium ion influx into cells by a TRPV4 agonist (result in words): concentration-dependent, 100 and 300 μM, vs GSK1016790a + DMSO, Dunnett's test; for Intracellular Ca^2+ influx rate (%): GSK + DMSO defined as 100%, n = 3, Mean ± S.E.
Procedure: HeLa cells were cultured using a DMEM/F12 medium containing 10% fetal bovine serum. The HeLa cells were seeded in a T-75 cell culture flask at 5×10^5 cells/flask. The cells were cultured for 3 days, were then transfected with the human TRPV4 gene expression vector (8 μg) produced in the above (2) using TransIT-HeLaMONSTER Transfection Kit, and were cultured for 1 day.
The cells were detached with Detachin, were seeded in a 96-well optical bottom plate containing a DMEM/F12 medium containing 10% fetal bovine serum at a cell density of 1.5×10^4 cells/90 μL/well, and were further cultured for 1 day.
The intracellular calcium ion influx rate was measured using Calcium Kit II-fluo 4. Loading buffer containing Fluo 4-AM and Hanks' balanced salt solution were mixed at 1:1 and were then added to the human TRPV4-expressing cells produced in the above (3) at 180 μL/well, followed by incubation at 37° C. for 1 hour. Subsequently, the fluorescence intensity (excitation wavelength: 488 nm, fluorescence wavelength: 524 nm) was measured every 2 seconds at 37° C. using a fluorescence plate reader FDSS3000 (Hamamatsu Photonics K.K.). 30 seconds after the start of the measurement, GSK1016790a as a TRPV4 agonist and the 4-O-methyl-rosmarinic acid or 3,4′-di-O-methyl-rosmarinic acid solution prepared in the above Manufacturing Example as a sample were each diluted with Hanks' balanced salt solution, and a mixture solution thereof (mixed immediately before the addition) was added at 20 μL/well. The change in fluorescence intensity was measured every 2 seconds for 300 seconds. GSK1016790a was added to give a final concentration of 3 nM.
In addition, as a positive control for TRPV4 activity inhibition, HC067047, which is a TRPV4 antagonist, was added at a final concentration of 10 μM. 4-O-Methyl-rosmarinic acid, 3,4′-di-O-methyl-rosmarinic acid, GSK1016790a, and HC067047 were all used by dissolving in dimethyl sulfoxide (DMSO).
The TRPV4 activity of a sample was calculated by the following expression, and the intracellular calcium ion influx rate due to the treatment with a TRPV4 agonist, GSK1016790a, was defined as 100%.
Intracellular calcium ion influx rate (%)=[(F max/F0)−(F max C2/F0C2)]/[(F max C1/F0C1)−(F max C2/F0C2)]×100
F max: Maximum fluorescence intensity of the well containing GSK1016790a and a sample in the period from 0 to 300 seconds after the start of the measurement,
F max C1: Maximum fluorescence intensity of the well containing GSK1016790a and a solvent in the period from 0 to 300 seconds after the start of the measurement,
F max C2: Maximum fluorescence intensity of the well containing only a solvent in the period from 0 to 300 seconds after the start of the measurement,
F0: Fluorescence intensity of the well of F max immediately after the start of the measurement,
F0C1: Fluorescence intensity of the well of F max C1 immediately after the start of the measurement, and
F0C2: Fluorescence intensity of the well containing only a solvent immediately after the start of the measurement.
The intracellular calcium ion influx rate (each group, n=3) when a sample was added was compared to that when GSK1016790a and a solvent (DMSO) were added and was examined by a Dunnett's test. […] The results are expressed as the mean value (Mean)±standard error (S.E.).

[1] = sample 100 μM with GSK1016790a 3 nM
[2] = sample 300 μM with GSK1016790a 3 nM

T1 sequence (Q9HBA0 whole entry): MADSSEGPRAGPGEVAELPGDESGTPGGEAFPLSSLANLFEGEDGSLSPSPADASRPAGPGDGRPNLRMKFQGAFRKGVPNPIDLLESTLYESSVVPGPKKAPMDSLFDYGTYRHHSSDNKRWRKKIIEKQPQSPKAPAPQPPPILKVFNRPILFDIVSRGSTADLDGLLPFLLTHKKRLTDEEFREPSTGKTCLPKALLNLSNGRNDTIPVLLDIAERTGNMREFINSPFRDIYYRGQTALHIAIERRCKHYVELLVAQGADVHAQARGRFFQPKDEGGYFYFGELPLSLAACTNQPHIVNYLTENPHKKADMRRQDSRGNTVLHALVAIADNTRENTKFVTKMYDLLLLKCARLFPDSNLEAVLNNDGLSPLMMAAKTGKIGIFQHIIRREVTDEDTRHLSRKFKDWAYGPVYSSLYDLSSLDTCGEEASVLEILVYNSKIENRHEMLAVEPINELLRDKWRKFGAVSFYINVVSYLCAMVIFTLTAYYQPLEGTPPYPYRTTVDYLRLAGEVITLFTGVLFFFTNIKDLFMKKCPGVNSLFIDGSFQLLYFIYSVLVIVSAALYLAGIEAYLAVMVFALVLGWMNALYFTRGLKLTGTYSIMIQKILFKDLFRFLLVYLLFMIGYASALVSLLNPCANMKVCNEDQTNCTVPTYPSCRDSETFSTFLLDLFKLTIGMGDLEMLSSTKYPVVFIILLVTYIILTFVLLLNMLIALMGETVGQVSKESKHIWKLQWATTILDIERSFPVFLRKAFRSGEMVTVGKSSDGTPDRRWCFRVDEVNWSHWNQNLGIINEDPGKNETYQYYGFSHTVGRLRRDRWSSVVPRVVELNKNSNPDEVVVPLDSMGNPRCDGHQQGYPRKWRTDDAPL

## COc1ccc(CC(OC(=O)/C=C/c2ccc(O)c(O)c2)C(=O)O)cc1O (stereo not shown) [4-Me-RA, (E)-3-(3-hydroxy-4-methoxyphenyl)-2-{[3-(3,4-dihydroxyphenyl)acryloyl]oxy}propionic acid]
  calcium ion influx into cells by a TRPV4 agonist (result in words): significantly decreased
[1]
  Intracellular Ca^2+ influx rate (%): 92.65 ± 0.89 (N.S.) %
[2]
  Intracellular Ca^2+ influx rate (%): 82.90 ± 3.04 (P < 0.01) %

## COc1ccc(/C=C/C(=O)OC(Cc2ccc(O)c(OC)c2)C(=O)O)cc1O (stereo not shown) [3,4′-DiMe-RA, (E)-3-(4-hydroxy-3-methoxyphenyl)-2-{[3-(3-hydroxy-4-methoxyphenyl)acryloyl]oxy}propionic acid]
  calcium ion influx into cells by a TRPV4 agonist (result in words): significantly decreased
[1]
  Intracellular Ca^2+ influx rate (%): 78.81 ± 1.73 (P < 0.001) %
[2]
  Intracellular Ca^2+ influx rate (%): 71.25 ± 5.52 (P < 0..001) %

## Cc1c(C(=O)Nc2cccc(C(F)(F)F)c2)cc(-c2ccccc2)n1CCCN1CCOCC1 [HC067047, reference compound]
Sample 10 μM with GSK1016790a 3 nM
  Intracellular Ca^2+ influx rate (%): 2.46 ± 0.14 (P < 0.001) %

Reference: patent publication US20210300859A1, “ROSMARINIC ACID DERIVATIVE OR SALT THEREOF” (KAO CORPORATION, priority 2018, published 2021)
